Results from patent publication US9221795B2, “Phosphatidylinositol 3-kinase inhibitors” (Gilead Sciences, Inc., priority 2013, dated 2015).

Legend:
[1] = system: basophils; test: Basophil activation in human whole blood (Flow2 CAST kit, CD63 flow cytometry); format: cell-based; settings: Homo sapiens, human whole blood, basophils activated with anti-FcεRI mAb or fMLP, percent CD63 positive cells
[2] = target: PI3Kδ (Homo sapiens (Human), UniProt O00329); test: Enzymatic activity of PI3K isoforms, TR-FRET assay (PI3Kδ); format: biochemical; settings: 2× Km ATP, geometric mean if more than one value
Sequence of PI3Kδ (O00329 whole entry, canonical isoform): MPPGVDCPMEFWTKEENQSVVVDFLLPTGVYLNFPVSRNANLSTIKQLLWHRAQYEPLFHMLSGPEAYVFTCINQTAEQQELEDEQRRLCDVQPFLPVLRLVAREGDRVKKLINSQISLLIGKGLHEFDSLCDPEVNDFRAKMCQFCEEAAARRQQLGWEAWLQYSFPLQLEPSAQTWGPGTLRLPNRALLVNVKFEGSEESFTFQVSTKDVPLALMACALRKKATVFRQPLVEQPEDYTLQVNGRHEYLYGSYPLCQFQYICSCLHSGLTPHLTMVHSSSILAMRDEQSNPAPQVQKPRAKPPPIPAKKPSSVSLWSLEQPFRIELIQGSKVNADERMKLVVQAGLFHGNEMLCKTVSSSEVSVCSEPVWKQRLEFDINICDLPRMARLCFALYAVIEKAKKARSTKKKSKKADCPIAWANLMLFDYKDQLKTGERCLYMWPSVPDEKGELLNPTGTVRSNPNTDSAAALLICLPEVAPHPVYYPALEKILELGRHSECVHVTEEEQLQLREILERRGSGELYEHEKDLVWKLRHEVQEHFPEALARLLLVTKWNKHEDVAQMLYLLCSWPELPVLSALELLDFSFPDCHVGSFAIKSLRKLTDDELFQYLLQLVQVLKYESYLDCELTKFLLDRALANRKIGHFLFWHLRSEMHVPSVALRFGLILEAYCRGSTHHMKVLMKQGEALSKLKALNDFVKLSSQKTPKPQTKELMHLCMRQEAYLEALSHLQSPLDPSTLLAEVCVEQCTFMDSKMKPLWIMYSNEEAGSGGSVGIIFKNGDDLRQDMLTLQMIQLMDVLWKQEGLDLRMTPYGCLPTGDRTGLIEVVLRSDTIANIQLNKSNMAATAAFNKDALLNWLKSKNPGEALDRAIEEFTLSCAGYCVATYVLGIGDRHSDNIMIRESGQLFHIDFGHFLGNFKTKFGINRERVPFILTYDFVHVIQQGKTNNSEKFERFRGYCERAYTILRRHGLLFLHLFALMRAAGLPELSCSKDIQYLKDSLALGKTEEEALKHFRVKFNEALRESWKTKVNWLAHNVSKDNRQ
Sequence of PI3Kδ (P27986 whole entry partner, canonical isoform): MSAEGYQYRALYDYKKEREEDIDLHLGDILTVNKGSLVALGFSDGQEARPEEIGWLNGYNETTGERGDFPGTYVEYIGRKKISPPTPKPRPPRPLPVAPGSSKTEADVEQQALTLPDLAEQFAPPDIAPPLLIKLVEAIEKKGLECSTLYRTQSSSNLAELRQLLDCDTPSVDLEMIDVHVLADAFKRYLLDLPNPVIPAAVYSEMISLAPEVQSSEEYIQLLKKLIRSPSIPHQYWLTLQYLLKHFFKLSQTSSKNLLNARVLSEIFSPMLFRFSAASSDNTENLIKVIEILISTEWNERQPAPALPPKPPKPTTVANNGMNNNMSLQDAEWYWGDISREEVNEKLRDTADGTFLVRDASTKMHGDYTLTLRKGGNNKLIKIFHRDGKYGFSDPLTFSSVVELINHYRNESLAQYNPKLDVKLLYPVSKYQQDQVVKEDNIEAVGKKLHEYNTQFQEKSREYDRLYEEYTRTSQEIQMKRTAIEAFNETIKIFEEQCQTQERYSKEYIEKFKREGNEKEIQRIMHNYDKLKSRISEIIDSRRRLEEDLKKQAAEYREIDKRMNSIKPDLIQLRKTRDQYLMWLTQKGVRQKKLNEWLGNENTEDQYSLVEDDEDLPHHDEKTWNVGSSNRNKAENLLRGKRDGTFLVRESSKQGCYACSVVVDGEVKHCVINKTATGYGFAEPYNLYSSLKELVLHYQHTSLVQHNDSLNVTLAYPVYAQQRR
Procedure, shortened: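 Recombinant heterodimeric PI3Kβ or PI3Kδ (25-50 pM) was run with 2 μM PIP2 and 2× Km ATP (75-500 μM) at pH 7.4, for 30 min at 25° C. PIP3 formation was detected by TR-FRET displacement of labeled PIP3 from Eu-GRP-1. IC50 values in nM come from four-parameter fits, as geometric means.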

[3] = system: cryopreserved human hepatocytes; test: Hepatocyte stability (parent drug disappearance in cryopreserved hepatocytes); format: in vitro ADME; settings: human hepatocytes, 2 μM substrate, 37° C.
Procedure, shortened: (§1)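 Test article at 2 μM incubated in duplicate with 1 million hepatocytes/mL at 37 °C, 5% CO2, humidified. Parent loss tracked by LC/MS at 0, 1, 2 and 4 h, giving half-life (t1/2) in hours.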

[4] = target: PI3Kβ (Homo sapiens (Human), UniProt P42338); test: Enzymatic activity of PI3K isoforms, TR-FRET assay (PI3Kβ); format: biochemical; settings: 2× Km ATP, geometric mean if more than one value
Sequence of PI3Kβ (P42338 whole entry, the tested form may be a part, canonical isoform): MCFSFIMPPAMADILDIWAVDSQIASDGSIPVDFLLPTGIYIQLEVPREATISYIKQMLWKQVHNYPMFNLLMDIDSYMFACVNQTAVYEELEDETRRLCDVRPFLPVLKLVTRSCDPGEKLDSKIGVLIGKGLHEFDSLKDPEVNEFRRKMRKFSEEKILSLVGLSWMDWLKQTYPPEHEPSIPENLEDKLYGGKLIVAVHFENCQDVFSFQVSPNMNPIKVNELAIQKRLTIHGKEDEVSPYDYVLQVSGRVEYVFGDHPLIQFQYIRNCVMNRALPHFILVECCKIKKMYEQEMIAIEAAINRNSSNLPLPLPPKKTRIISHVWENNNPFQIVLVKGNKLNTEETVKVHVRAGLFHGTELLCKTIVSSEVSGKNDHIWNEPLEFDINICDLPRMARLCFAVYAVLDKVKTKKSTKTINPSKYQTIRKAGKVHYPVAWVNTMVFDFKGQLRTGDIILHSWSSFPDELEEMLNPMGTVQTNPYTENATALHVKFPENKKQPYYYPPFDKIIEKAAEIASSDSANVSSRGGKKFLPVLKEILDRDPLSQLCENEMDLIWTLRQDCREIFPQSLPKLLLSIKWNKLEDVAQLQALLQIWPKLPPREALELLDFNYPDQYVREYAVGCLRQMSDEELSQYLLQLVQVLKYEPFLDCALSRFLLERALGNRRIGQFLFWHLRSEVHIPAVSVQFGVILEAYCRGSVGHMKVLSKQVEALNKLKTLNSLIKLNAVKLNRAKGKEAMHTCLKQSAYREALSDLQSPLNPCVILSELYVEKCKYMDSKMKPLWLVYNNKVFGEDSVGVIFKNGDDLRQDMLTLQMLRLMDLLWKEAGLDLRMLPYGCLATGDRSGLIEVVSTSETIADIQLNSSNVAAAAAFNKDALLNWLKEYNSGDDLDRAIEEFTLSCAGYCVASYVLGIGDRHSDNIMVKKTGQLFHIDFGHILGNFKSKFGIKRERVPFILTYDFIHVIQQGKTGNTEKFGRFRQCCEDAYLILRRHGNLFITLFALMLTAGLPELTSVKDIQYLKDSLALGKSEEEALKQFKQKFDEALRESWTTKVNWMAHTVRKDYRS
Sequence of PI3Kβ (P27986 whole entry partner, the tested form may be a part, canonical isoform): as the sequence (P27986 whole entry partner, canonical isoform) above
Procedure: Enzymatic activity of the class I PI3K isoforms in the presence of the compounds of Table 1 and Compounds X, Y and Z was measured using a time-resolved fluorescence resonance energy transfer (TR-FRET) assay. The TR-FRET assay was used to monitor formation of the product 3,4,5-inositol triphosphate molecule (PIP3) as it competed with fluorescently labeled PIP3 for binding to the GRP-1 pleckstrin homology domain protein. An increase in […] product results in a decrease in TR-FRET signal as the labeled fluorophore is displaced from the GRP-1 protein binding site.
Class I PI3K isoforms were expressed and purified as heterodimeric recombinant proteins. All assay reagents and buffers for the TR-FRET assay were purchased from Millipore. PI3K isoforms were assayed under initial rate conditions in the presence of 25 mM Hepes (pH 7.4), and 2× Km ATP (75-500 μM), 2 μM PIP2, 5% glycerol, 5 mM MgCl2, 50 mM NaCl, 0.05% (v/v) Chaps, 1 mM dithiothreitol, 1% (v/v) DMSO at the following concentrations for each isoforms: PI3Kα, PI3Kβ, and PI3Kδ between 25 and 50 pM, and PI3Kγ at 2 nM. After an assay reaction time of 30 minutes at 25° C., reactions were terminated with a final concentration of 10 mM EDTA, 10 nM labeled-PIP3, and 35 nM Europium labeled GRP-1 detector protein before reading TR-FRET on an Envision plate reader (Ex: 340 nm; Em: 615/665 nm; […] delay and 500 μs read window).
Data were normalized based on positive ([…] wortmanin) and negative (DMSO) controls. α, β, δ, and γ IC50 values were calculated from the fit of the dose-response curves to a four-parameter equation. All IC50 values represent geometric mean values if more than one value was obtained. IC50 values were reported in units of nM.

[5] = Hepatocyte stability (parent drug disappearance in cryopreserved hepatocytes); format: in vitro ADME, human; settings: human, cryopreserved human hepatocytes, 2 μM substrate, 37° C.; Table 2a
Procedure, shortened: as §1

Compound	EC50 ([1]; class symbol) [nM]	EC50 ([1]; geometric mean) [nM]	IC50 [2] [nM]	t1/2 ([3]; class symbol)	t1/2 ([3]; Table 3) [h]	IC50 [4] [nM]	half-life at 2 μM [5] [h]
Cc1c(F)cncc1-n1c([C@H](C)Nc2nc(N)nc(N)c2C#N)nc2cccc(Cl)c2c1=O (atropisomer, axis not shown) [Compound 47, (S)-2,4-diamino-6-(1-(5-chloro-3-(5-fluoro-4-methylpyridin-3-yl)-4-oxo-3,4-dihydroquinazolin-2-yl)ethylamino)pyrimidine-5-carbonitrile]	< 1	0.4	0.5	***** (***** = >10 h)	>10		
C[C@H](Nc1nc(N)nc(N)c1C#N)c1nc2cccc(Cl)c2c(=O)n1-c1ccc(N)nc1 [Compound 97, (S)-2,4-diamino-6-((1-(3-(6-aminopyridin-3-yl)-5-chloro-4-oxo-3,4-dihydroquinazolin-2-yl)ethyl)amino)pyrimidine-5-carbonitrile]			0.8			0.7	> 10
